Consider five molecules from US9101613B2, “Methods for treating neurological disease” (Neurim Pharmaceuticals (1991) Ltd., priority 2006, dated 2015).

pIC50, pKi: −log10 of the molar value. Like-named read-outs stand apart in the source and are kept apart here.

The target in one experiment is T1, 5-HT1A receptor (Homo sapiens, UniProt P08908).
T1 construct: expressed in transfected cells; host or cells: CHO-K1
T1 sequence (P08908 1-422): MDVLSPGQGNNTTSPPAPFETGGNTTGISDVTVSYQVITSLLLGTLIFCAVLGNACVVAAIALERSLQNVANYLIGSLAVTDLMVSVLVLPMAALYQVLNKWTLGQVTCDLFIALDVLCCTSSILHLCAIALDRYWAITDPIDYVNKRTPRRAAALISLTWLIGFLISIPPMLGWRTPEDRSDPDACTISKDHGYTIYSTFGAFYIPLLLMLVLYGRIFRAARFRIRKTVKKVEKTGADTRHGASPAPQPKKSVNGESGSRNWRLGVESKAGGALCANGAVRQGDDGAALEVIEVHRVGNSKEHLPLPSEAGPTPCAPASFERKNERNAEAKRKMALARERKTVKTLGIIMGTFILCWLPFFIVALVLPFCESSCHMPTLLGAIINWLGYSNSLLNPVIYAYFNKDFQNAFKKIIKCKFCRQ
The experiment in a line: Serotonin receptor binding, [3H] 8-OH-DPAT, CHO-K1 membranes. The procedure:
Aliquots of suspended membranes of human recombinant CHO-K1 cells stably expressing human 5-HT1A, 5-HT2A, 5-HT1B, 5-HT2B, 5-HT2C, 5-HT4, 5-HT6 or 5-HT7 receptors were pre-incubated at 25° C. with 1.5 nM [^3H] 8-OH-DPAT (5-HT1A), 1.5 nM [^3H] Ketanserin (5-HT2A), 0.01 nM [^125I] Cyanopindolol (5-HT1B), 1 nM [^3H] Mesulergine (5-HT2c), 0.7 nM [^3H] GR-113808 (5-HT4) or at 37° C. 1.2 nM [^3H] LSD (5-HT2B, 5-HT6 and 5-HT7) in buffer (50 mM Tris-HCl, pH 7.7) alone or in the presence of 1 nM, 10 nM, 0.1 μM, 1 μM, and 10 μM of N-[2-(5-methoxy-indol-3-yl)-ethyl]-commenamide, N-[2-(5-methoxy-indol-3-yl)-ethyl]-coumalylamide, N-[2-(5-methoxy-indol-3-yl)-ethyl]-comanilamide, N-[2-(5-methoxy-indol-3-yl)-ethyl]-2-methoxy-commenamide or N-[2-(5-methoxy-indol-3-yl)-ethyl]-chelidonamide for 60 minutes. The binding reaction was terminated and washed with 4 ml ice-cold 50 mM Tris-HCl buffer by vacuum filtration. Membranes were then collected, and the filters containing the bound ligands were assayed for the amount of radioactivity in a b-counter. Non-specific binding was evaluated using a reaction with 10 μM metergoline (5-HT1A), 1 μM mianserin (5-HT2A and 5-HT2c) or 10 μM serotonin (5-HT1B, 5-HT2B, 5-HT4, 5-HT6 and 5-HT7).

For a further experiment, the target named is T2, MT-2 receptor (Homo sapiens, UniProt P49286).
T2 construct: expressed in transfected cells; host or cells: CHP-K1 (Chinese hamster ovary) cells (so in the source)
T2 sequence (P49286 1-362): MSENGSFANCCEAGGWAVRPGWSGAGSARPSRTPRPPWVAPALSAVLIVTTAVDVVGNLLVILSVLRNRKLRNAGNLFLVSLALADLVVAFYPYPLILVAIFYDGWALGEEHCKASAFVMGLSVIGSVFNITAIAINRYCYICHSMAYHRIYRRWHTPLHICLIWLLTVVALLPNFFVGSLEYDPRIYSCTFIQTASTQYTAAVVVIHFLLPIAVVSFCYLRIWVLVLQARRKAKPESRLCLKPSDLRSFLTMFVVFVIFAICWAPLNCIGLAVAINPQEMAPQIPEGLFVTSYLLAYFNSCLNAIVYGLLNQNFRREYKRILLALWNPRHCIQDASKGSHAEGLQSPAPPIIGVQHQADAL
The experiment in a line: 125I-melatonin binding in membranes of CHP-K1 cells, MT-2. The conditions noted are these: for inhibition at 10 µM: read-out: MT-2 receptor binding % inhibition by 10 μM. The procedure: (§1) Aliquots of suspended membranes of human recombinant CHP-K1 (Chinese hamster ovary) cells stably expressing human melatonin-1 or melatonin-2 (MT-1 or MT-2) receptors or of hamster brain (MT-3) were incubated at 25° C. with 0.05 nM ^125I-melatonin in buffer (25 mM HEPES, pH 7.4, 5 mM MgCl2, 1 mM CaCl2, 0.5% BSA) or with 0.1 nM for MT-3 alone or in the presence of 1 nM, 10 nM, 0.1 μM, 1 μM and 10 μM of test substances N-[2-(5-methoxy-indol-3-yl)-ethyl]-commenamide, N-[2-(5-methoxy-indol-3-yl)-ethyl]-comanilamide, N-[2-(5-methoxy-indol-3-yl)-ethyl]-coumalylamide, N-[2-(5-methoxy-indol-3-yl)-ethyl]-2-methoxy-commenamide, N-[2-(5-methoxy-indol-3-yl)-ethyl]-chelidonamide, O-[2-(5-methoxy-indol-3-yl)-ethyl]-comenic ester, N-[2-(5-methoxy-indol-3-yl)-ethyl]-2-Pyrone-6-carboxamide and N-[2-(2-bromo-5-methoxy-indol-3-yl)-ethyl]-coumalylamide for 3 hours for MT-1, 4 hours for MT-2 and 30 min for MT-3. The binding reaction was terminated and the membranes were washed with 4 ml of ice-cold HEPES buffer by vacuum filtration. Membranes were then collected, and the filters containing the bound ^125I-melatonin were assayed for the amount of radioactivity in a […]. Non-specific binding was evaluated using a reaction with 1 μM 6-chloromelatonin (MT-1 and MT-2) or 30 μM melatonin (MT-3).

Another experiment concerns CD1 mice. Briefly: Potentiation of hexobarbital-Na sleep time in mice. The conditions noted are these: for effect on hexobarbital-Na narcosis time: 100 mg/kg i.p.; for Changes (%) vs. Vehicle (sleep time) / Mean Sleep Time-Treatment (min) ± SE: 100 mg/kg i.p. 15 min before 50 mg/kg hexobarbital-Na i.v.; for Mean Sleep Time-Treatment (min) ± SE: loss to recovery of righting reflex. The experiment is classed as in vivo. The procedure: CD1 mice were divided randomly into groups of seven mice each. The mice in each group were administered intraperitoneally a dose of one of the following: 100 mg/kg of one of test substances O-[2-(5-methoxy-indol-3-yl)-ethyl]-comenic ester, N-[2-(5-methoxyindol-3-yl)-ethyl]-commenamide, N-[2-(5-methoxy-indol-3-yl)-ethyl]-coumalylamide, N-[2-(5-methoxy-indol-3-yl)-ethyl]-chelidonamide, N-[2-(5-methoxy-indol-3-yl)-ethyl]-comanilamide or N-[2-(5-methoxy-indol-3-yl)-ethyl]-2-methoxy-commenamide in saline (0.1 ml/10 g body weight), or saline alone. Fifteen minutes later the mice received a dose of 50 mg/kg of hexobarbital-Na intravenously. Sleep time was measured in each animal as the time from loss to recovery of the righting reflex.

Another experiment addresses T3, MT-1 receptor (Homo sapiens, UniProt P48039).
T3 construct: expressed in transfected cells; host or cells: CHP-K1 (Chinese hamster ovary) cells (so in the source)
Briefly: 125I-melatonin binding in membranes of CHP-K1 cells, MT-1. The conditions noted are these: for inhibition at 10 µM: read-out: MT-1 receptor binding % inhibition by 10 μM. The procedure: as §1

Setting [1] is: 0.05 nM 125I-melatonin, 25° C., 4 hours, read-out: MT-2 receptor binding IC50.
The mark [2] stands for this setting: 0.05 nM 125I-melatonin, 25° C., 4 hours, read-out: MT-2 receptor binding KI.
Setting [3] is: 0.05 nM 125I-melatonin, 25° C., 3 hours, read-out: MT-1 receptor binding IC50.
Setting [4] is: 0.05 nM 125I-melatonin, 25° C., 3 hours, read-out: MT-1 receptor binding KI.

T3 sequence (P48039 whole entry): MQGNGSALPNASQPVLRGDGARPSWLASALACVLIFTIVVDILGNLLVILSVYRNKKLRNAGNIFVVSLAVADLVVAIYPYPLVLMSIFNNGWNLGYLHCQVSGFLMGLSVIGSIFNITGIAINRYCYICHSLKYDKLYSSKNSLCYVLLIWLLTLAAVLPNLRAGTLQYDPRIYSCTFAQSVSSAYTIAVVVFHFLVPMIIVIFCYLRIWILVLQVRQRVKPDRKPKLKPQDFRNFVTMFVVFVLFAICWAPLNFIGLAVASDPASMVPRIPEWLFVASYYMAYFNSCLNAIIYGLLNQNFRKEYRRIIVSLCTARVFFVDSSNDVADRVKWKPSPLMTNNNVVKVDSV

What is called pIC50 is the IC50 on a negative log10 scale, so that one unit is a factor of ten. Usually pKi stands for −log10 of the Ki, conventionally taken in molar units. The term inhibition denotes the relative decrease from the control value, in per cent. For `COc1ccc2[nH]cc(CCNC(=O)c3cc(=O)cc(C(=O)O)o3)c2c1` [N-[2-5-methoxy-indol-3-yl)-ethyl]-chelidonamide], on 5-HT1A receptor, the “affinity to 5-HT1A” value is “moderate affinity”. For the same molecule, the pIC50 on 5-HT1A receptor (read-out: 5-HT1A IC50) is 5.99; on MT-2 receptor (setting [1]) it was 5.75; on MT-1 receptor (setting [3]), 5.61. In addition, the pKi on 5-HT1A receptor (read-out: 5-HT1A KI) is 6.24; on MT-2 receptor (setting [2]), 6.04; on MT-1 receptor (setting [4]), 5.89. The inhibition at 10 µM came out at 89% at MT-2 receptor (10 μM, 0.05 nM 125I-melatonin) and 80% on MT-1 receptor (10 μM, 0.05 nM 125I-melatonin). Moreover, the “effect on hexobarbital-Na narcosis time” value with CD1 mice is recorded as “moderately increased the hexobarbital-Na narcosis time”. In the experiment with CD1 mice, the “Changes (%) vs. Vehicle (sleep time)” value was “+54%”. For the same molecule, in the experiment with CD1 mice, the “Mean Sleep Time-Treatment (min) ± SE” value is 12.37 ± 1.85 min.
Take `COc1ccc2[nH]cc(CCNC(=O)c3ccc(=O)oc3)c2c1` [N-[2-(5-methoxy-indol-3-yl)-ethyl]-coumalylamide]: the pIC50 at 5-HT1A receptor (read-out: 5-HT1A IC50) is 5.71; on MT-2 receptor (setting [1]), 6.43; on MT-1 receptor (setting [3]), 6.12. Besides, the pKi at 5-HT1A receptor (read-out: 5-HT1A KI) is 6.19; on MT-2 receptor (setting [2]), 6.72; at MT-1 receptor (setting [4]), 6.41. Further, the inhibition at 10 µM is 95% at MT-2 receptor (10 μM, 0.05 nM 125I-melatonin) and 89% at MT-1 receptor (10 μM, 0.05 nM 125I-melatonin). In addition, the “effect on hexobarbital-Na narcosis time” value in the experiment on CD1 mice was “significantly increased the hexobarbital-Na narcosis time”. Also, the “Changes (%) vs. Vehicle (sleep time)” value in the experiment on CD1 mice was “+194%”. Also, the “Mean Sleep Time-Treatment (min) ± SE” value in the experiment on CD1 mice amounted to 23.58 ± 3.19 min.
For the molecule `COc1ccc2[nH]cc(CCNC(=O)c3cc(=O)c(OC)co3)c2c1` [N-[2-(5-methoxy-indol-3-yl)-ethyl]-2-methoxy-commenamide], the pIC50 at 5-HT1A receptor (read-out: 5-HT1A IC50) was 5.71; on MT-2 receptor (setting [1]), 6.08; at MT-1 receptor (setting [3]), 5.67. Moreover, the values for the pKi at 5-HT1A receptor (read-out: 5-HT1A KI), at MT-2 receptor (setting [2]) and at MT-1 receptor (setting [4]) were 5.96, 6.37 and 5.95, respectively. Moreover, the inhibition at 10 µM on MT-2 receptor (10 μM, 0.05 nM 125I-melatonin) was determined as 93%; at MT-1 receptor (10 μM, 0.05 nM 125I-melatonin), 76%. Besides, the “Changes (%) vs. Vehicle (sleep time)” value in the experiment on CD1 mice is reported as −21%. In addition, the “Mean Sleep Time-Treatment (min) ± SE” value in the experiment with CD1 mice turned out to be 7.70 ± 1.24 min.
On to `COc1ccc2[nH]cc(CCNC(=O)c3cc(=O)c(O)co3)c2c1` [N-[2-(5-methoxy-indol-3-yl)-ethyl]-commenamide], for which, on 5-HT1A receptor, the pIC50 is 6.17, the pKi was 6.41 and the “affinity to 5-HT1A” value is on record as “moderate affinity”. On MT-2 receptor, the pIC50 was 7.89, the pKi was 8.15, the “affinity to MT-2” value is “high affinity” and the inhibition at 10 µM worked out at 101%. Further, in the experiment on CD1 mice, the “effect on hexobarbital-Na narcosis time” value is “significantly increased the hexobarbital-Na narcosis time”, the “Changes (%) vs. Vehicle (sleep time)” value is recorded as “+88%” and the “Mean Sleep Time-Treatment (min) ± SE” value is 17.13 ± 8.06 min. Further, on MT-1 receptor, the pIC50 is 7.62, the pKi was 7.89, the “affinity to MT-1” value was “high affinity” and the inhibition at 10 µM turned out to be 99%.
Regarding `COc1ccc2[nH]cc(CCNC(=O)c3cc(=O)cco3)c2c1` [N-[2-(5-methoxy-indol-3-yl)-ethyl]-comanilamide], the pIC50 is 5.71 at 5-HT1A receptor (read-out: 5-HT1A IC50), 7.19 at MT-2 receptor (setting [1]) and 7.38 at MT-1 receptor (setting [3]). The pKi at 5-HT1A receptor (read-out: 5-HT1A KI) was 5.95; on MT-2 receptor (setting [2]), 7.47; at MT-1 receptor (setting [4]) it was 7.66. For the same molecule, the “affinity to MT-2” value on MT-2 receptor is “high affinity”. For the same molecule, the inhibition at 10 µM on MT-2 receptor (10 μM, 0.05 nM 125I-melatonin) is 100%; on MT-1 receptor (10 μM, 0.05 nM 125I-melatonin) it was 98%. Besides, in the experiment with CD1 mice, the “effect on hexobarbital-Na narcosis time” value is listed as “moderately increased the hexobarbital-Na narcosis time”. In addition, the “Changes (%) vs. Vehicle (sleep time)” value in the experiment on CD1 mice was “+49%”. Moreover, in the experiment on CD1 mice, the “Mean Sleep Time-Treatment (min) ± SE” value amounted to 17.52 ± 3.07 min. In addition, the “affinity to MT-1” value on MT-1 receptor is given as “high affinity”.
